Consider 3 compounds from patent US11197903B2, “Composition containing a bean extract for improving blood circulation and vascular health and method for improving blood circulation and vascular health” (AMOREPACIFIC CORPORATION, priority 2009, dated 2021).

For data set [1], the system named is rats fed high-cholesterol diet. The experiment in a line: Serum and liver lipid levels in high-cholesterol diet animal model. Particulars: 200 mg/kg orally, 4 weeks. The data set is classed as in vivo, rat. The protocol:
8-week-old female rats weighing 250-300 g were kept in polycarbonate cages, 8 heads per cage, maintained at 22±2° C. and 55±15% relative humidity with 12/12-hr light/dark cycles. Normal diet or high-cholesterol diet was provided and water was given freely. Fenofibric acid (200 mg/kg) used for treatment of hyperlipidemia was suspended in 1% methyl cellulose (MC) and orally administered as a positive control. The seoritae extract (200 mg/kg) was orally administered once a day for 4 weeks. […] After the centrifugation, total cholesterol, LDL-cholesterol, HDL-cholesterol and triglyceride levels in the obtained serum were evaluated. The analysis was performed using an automated hematology analyzer and the Roche diagnostic kit. The result is shown in Table 17 (serum lipids) and Table 18 (liver lipids).

The conditions of data set [2]: in vivo. The procedure:
Bleeding time was compared for the cases where 20% ethanol seoritae extract, aspirin or clopidogrel was treated.

In data set [1] (liver), `CC(C)(Oc1ccc(C(=O)c2ccc(Cl)cc2)cc1)C(=O)O` [Positive control, Fenofibric acid] yielded a Total cholesterol of 15.43 ± 0.52 µg/mg and a Triglyceride of 185.39 ± 23.84 µg/mg. In data set [1] (serum), this compound gave an HDL-cholesterol of 87.89 ± 6.84 mg/dL, an LDL-cholesterol of 75.34 ± 2.80 mg/dL and a Total cholesterol of 112.42 ± 13.33 mg/dL.
With `CC(=O)Oc1ccccc1C(=O)O` [aspirin], the “bleeding time (FIG. 18)” value in data set [2] is “significant increase of bleeding time”.
With `COC(=O)[C@H](c1ccccc1Cl)N1CCc2sccc2C1` [clopidogrel], the “bleeding time (FIG. 18)” value in data set [2] is on record as “significant increase of bleeding time”.
